Values joined by “and” are separate entries in the source; they are usually repeats but may differ in a detail not shown here. Equal entries are not always repeated.
Columns and labels:
rat = details: oral; cited from earlier work
P. dumerilii embryos = test: Developmental toxicity (EC50) of OH-DCQ and 2,6-DCQ to P. dumerilii embryos; type: in vivo, Platynereis dumerilii
Experimental: The third aliquot was subjected to the developmental toxicity assay with P. dumerilii embryos. The aliquot was dissolved in 10 mL of seawater and adjusted to pH 8.2. The embryos at 12-h postfertilization were exposed to different levels of OH-DCQ for 12 h. By 24-h postfertilization, normally and abnormally developed embryos were counted using an inverted stereomicroscope. Based on the percentage of normally developed embryos, an exposure−response curve was generated. The median effective concentration (EC50) was determined using SigmaPlot 12 software. The developmental toxicity of 2,6-DCQ was also evaluated for comparison. The toxicity bioassay was conducted in duplicate.

[1] = UPLC/ESI-tqMS time profile of 2,6-DCQ and its degradation products in simulated seawater (pH 8.2, darkness); OH-DCQ formation; details: for Concentration: 2,6-DCQ degradation / OH-DCQ formation; for Peak area: 2,6-DCQ degradation
Experimental: A Waters UPLC system coupled with ESI-tqMS was used to characterize the degradation products of 2,6-DCQ. The UPLC separation was performed using an HSS T3 column (100 × 2.1 mm, 1.8 μm particle size, Waters) with a column temperature of 35 °C. A gradient eluent of methanol–water was applied at a flow rate of 0.4 mL min^−1. The gradient program was set as follows: methanol/water (v/v) ratio changed linearly from 5/95 to 90/10 in the first 8 min and then returned to 5/95 during 8.0‒8.1 min, which was held for 2.9 min for re-equilibration. The ESI-tqMS was set as follows: ESI negative mode, capillary voltage 2.8 kV, cone voltage 10–50 V (depending on analytes), cone gas flow 50 L h^−1, source temperature 120 °C, desolvation temperature 400 °C, desolvation gas flow 800 L h^−1, collision energy 15–50 eV (depending on analytes), collision gas (argon) flow 0.25 mL min^−1, and mass resolution 15 (1-unit resolution).
The degradation of 2,6-DCQ in seawater was simulated by adding 10 mg L^−1 2,6-DCQ to 50 mL ultrapure water, which was adjusted to pH 8.2 with 5 mM sodium carbonate (to simulate the alkalinity in seawater and also to be compatible with the subsequent UPLC/ESI-tqMS analysis). The sample was kept in darkness for 0–24 h, during which the pH of the sample was maintained at 8.1 ± 0.1. At a designated reaction time, 7.5 μL of the sample was injected into the UPLC system. For a nonhalogenated degradation product, the selected ion recording (SIR) mode with a dwell time of 0.05 s was adopted to obtain the retention time. For halogenated degradation products, the multiple reaction monitoring mode with a dwell time of 0.05 s was used to obtain the retention time and the isotopic abundance ratio. To investigate the time-dependent profile of 2,6-DCQ and its degradation products, the peak area of each compound was determined using the SIR mode in the UPLC/ESI-tqMS analysis.
The second aliquot was subjected to analysis of total organic halogen to quantify the collected OH-DCQ. The determination of total organic halogen was based on Standard Method 5320B[52], with modifications of using off-line ion chromatography for halide detection. Briefly, the aliquot was dissolved in 100 mL ultrapure water and acidified to pH 2 with concentrated nitric acid[52] prior to adsorption onto pre-packed activated carbon columns (Mitsubishi). A three-channel adsorption module (TXA03C, Mitsubishi Chemical Analytech) was used for adsorption. An AQF-100 automatic quick furnace (Mitsubishi Chemical Analytech) was used for pyrolysis. During the pyrolysis process, the chlorine atoms in OH-DCQ were converted to chloride. The chloride ion concentration was determined using an ICS-3000 ion chromatography system (Dionex). 2,6-DCQ was used as a standard compound for measuring total organic halogen to determine the recovery of the analysis. The total organic halogen analysis was conducted in duplicate.

In the case of `Cc1cc(O)cc(C)c1Cl` [PCMX, para-chloro-meta-xylenol, reference compound], the LD50 (rat) is given as 3830 mg/kg.

For `O=C1C=C(Cl)C(=O)C(Cl)=C1O` [OH-DCQ, 3-hydroxyl-2,6-dichloro-1,4-benzoquinone], the Normal development (P. dumerilii embryos; OH-DCQ concentration 15 mg L-1) was 92.9293% and 86.7257%, the Normal development (P. dumerilii embryos; OH-DCQ concentration 25 mg L-1) was 83.1776% and 81.579% and the Normal development (P. dumerilii embryos; OH-DCQ concentration 35 mg L-1) was 84.1584% and 85.7144%. The Normal development (P. dumerilii embryos; OH-DCQ concentration 40 mg L-1) was 83.0189% and 85.5855%, the Normal development (P. dumerilii embryos; OH-DCQ concentration 48 mg L-1) was 79.8164% and 77.4194% and the Normal development (P. dumerilii embryos; OH-DCQ concentration 65 mg L-1) was 67.0813% and 64.9575%. For the same compound, the Normal development (P. dumerilii embryos; OH-DCQ concentration 85 mg L-1) was 48.8761% and 42.0329%, the “Degradation time at which concentration reached its maximum” value ([1]; 10 mg L−1, pH 8.2) was 5.5 h and the Concentration ([1]; degradation time 0 h) was 388.2 ng/mL. The Concentration ([1]; degradation time 0.25 h) was 1568 ng/mL, the Concentration ([1]; degradation time 0.5 h) was 2136 ng/mL and the Concentration ([1]; degradation time 0.75 h) was 2523 ng/mL. It also gave a Concentration ([1]; degradation time 1 h) of 2564 ng/mL, a Concentration ([1]; degradation time 1.25 h) of 2851 ng/mL and a Concentration ([1]; degradation time 1.5 h) of 2913 ng/mL. The Concentration ([1]; degradation time 1.75 h) was 3134 ng/mL, the Concentration ([1]; degradation time 2 h) was 3157 ng/mL and the Concentration ([1]; degradation time 2.25 h) was 3402 ng/mL. The Concentration ([1]; degradation time 2.5 h) was 3558 ng/mL, the Concentration ([1]; degradation time 2.75 h) was 3742 ng/mL and the Concentration ([1]; degradation time 3 h) was 3837 ng/mL. For the same compound, the Concentration ([1]; degradation time 3.25 h) was 4027 ng/mL, the Concentration ([1]; degradation time 3.5 h) was 4055 ng/mL and the Concentration ([1]; degradation time 3.75 h) was 4030 ng/mL. The Concentration ([1]; degradation time 4 h) was 4244 ng/mL, the Concentration ([1]; degradation time 4.5 h) was 4217 ng/mL and the Concentration ([1]; degradation time 5 h) was 4099.6 ng/mL. The Concentration ([1]; degradation time 5.5 h) was 4364 ng/mL, the Concentration ([1]; degradation time 6 h) was 4268 ng/mL and the Concentration ([1]; degradation time 8 h) was 4192.4 ng/mL. It also gave a Concentration ([1]; degradation time 10 h) of 3830 ng/mL, a Concentration ([1]; degradation time 12 h) of 3886 ng/mL and a Concentration ([1]; degradation time 14 h) of 3910 ng/mL. It also gave a Concentration ([1]; degradation time 16 h) of 3929.8 ng/mL, a Concentration ([1]; degradation time 18 h) of 3711 ng/mL and a Concentration ([1]; degradation time 20 h) of 3724 ng/mL. The Concentration ([1]; degradation time 24 h) was 3646 ng/mL, the Peak area ([1]; pH 8.2, darkness, 0 h) was 2432 and the Peak area ([1]; pH 8.2, darkness, 0.25 h) was 9916. For the same compound, the Peak area ([1]; pH 8.2, darkness, 0.5 h) was 13509, the Peak area ([1]; pH 8.2, darkness, 0.75 h) was 15961 and the Peak area ([1]; pH 8.2, darkness, 1 h) was 16217. It also gave a Peak area ([1]; pH 8.2, darkness, 1.25 h) of 18034, a Peak area ([1]; pH 8.2, darkness, 1.5 h) of 18424 and a Peak area ([1]; pH 8.2, darkness, 1.75 h) of 19823. For the same compound, the Peak area ([1]; pH 8.2, darkness, 2 h) was 19969, the Peak area ([1]; pH 8.2, darkness, 2.25 h) was 21520 and the Peak area ([1]; pH 8.2, darkness, 2.5 h) was 22505. It also gave a Peak area ([1]; pH 8.2, darkness, 2.75 h) of 23670, a Peak area ([1]; pH 8.2, darkness, 3 h) of 24273 and a Peak area ([1]; pH 8.2, darkness, 3.25 h) of 25472. For the same compound, the Peak area ([1]; pH 8.2, darkness, 3.5 h) was 25650, the Peak area ([1]; pH 8.2, darkness, 3.75 h) was 25488 and the Peak area ([1]; pH 8.2, darkness, 4 h) was 26847. The Peak area ([1]; pH 8.2, darkness, 4.5 h) was 26676, the Peak area ([1]; pH 8.2, darkness, 5 h) was 25931 and the Peak area ([1]; pH 8.2, darkness, 5.5 h) was 27605. For the same compound, the Peak area ([1]; pH 8.2, darkness, 6 h) was 26995, the Peak area ([1]; pH 8.2, darkness, 8 h) was 26518 and the Peak area ([1]; pH 8.2, darkness, 10 h) was 24223. The Peak area ([1]; pH 8.2, darkness, 12 h) was 24578, the Peak area ([1]; pH 8.2, darkness, 14 h) was 24730 and the Peak area ([1]; pH 8.2, darkness, 16 h) was 24857. The Peak area ([1]; pH 8.2, darkness, 18 h) was 23474, the Peak area ([1]; pH 8.2, darkness, 20 h) was 23553 and the Peak area ([1]; pH 8.2, darkness, 24 h) was 23064. For the same compound, the “Maximum concentration as share of initial molar concentration of 2,6-DCQ” value ([1]; pH 8.2, darkness) was 41%.
